In ChEMBL document CHEMBL4411282, “Fragment-based drug discovery of triazole inhibitors to block PDEδ-RAS protein-protein interaction” (Eur J Med Chem, 2019) one finds IC50 data, which are given here for 13 compounds.

The test system of this assay is A549. As to the kind of experiment: Antiproliferative activity against human A549 cells harboring KRAS G12S point mutant after 72 hrs by SRB assay. To be noted: A549, 72 h.

For orientation: IC50 means the concentration that inhibits the measured activity by half.

Take `c1ccc(Cn2c(-c3ccc(OC[C@H](C4CCNCC4)n4c(-c5ccccc5)nc5ccccc54)cc3)nc3ccccc32)cc1`: it took 6.4 µM to reach half-maximal inhibition (IC50). In other words, the single-digit micromolar range.

Regarding `COc1ccc(CSc2nnc(-c3ccc(OCC(=O)Nc4ccc(N(C)C)cc4)cc3)n2Cc2ccccc2)cc1`, half-maximal inhibition (IC50) required 17.1 µM.

`COc1ccc(CSc2nnc(-c3ccc(OCC(=O)Nc4cc(C)nn4C)cc3)n2Cc2ccccc2)cc1`: 18.3 µM corresponded to half-maximal inhibition (IC50).

Compound `COc1ccc(CCc2nnc(-c3ccc(OCC(=O)Nc4cnn(C)c4)cc3)n2Cc2ccccc2)cc1` showed an IC50 of 24.1 µM. The IC50 values of the last two compounds are within 1.5-fold of each other. Take `CC(C)Cc1nnc(SCc2ccc(C(=O)Nc3ccc4ncccc4c3)cc2)n1Cc1ccccc1`: the IC50 came to 10.3 µM. Compound `COc1ccc(CSc2nnc(-c3ccc(OCC(=O)NC4CCCCC4)cc3)n2Cc2ccccc2)cc1` yielded an IC50 of 19.3 µM.

`COc1ccc(CSc2nnc(-c3ccc(OCC(=O)Nc4cnn(C)c4)cc3)n2Cc2ccccc2)cc1` displayed an IC50 of 36 µM.

Take `COc1ccc(CSc2nnc(-c3ccc(OCC(=O)Nc4cccnc4)cc3)n2Cc2ccccc2)cc1`: the IC50 is 11.3 µM. `CCC(Oc1ccc(-c2nnc(CCc3ccc(OC)cc3)n2Cc2ccccc2)cc1)C(=O)Nc1cnn(C)c1` (stereo not drawn) registered an IC50 greater than 50 µM.

In turn, `CC(C)Cc1nnc(SCc2ccc(C(=O)NC3CCCCC3)cc2)n1Cc1ccccc1` gave an IC50 of 32.6 µM. `COc1ccc(CCc2nnc(-c3ccc(OC(C)C(=O)Nc4cnn(C)c4)cc3)n2Cc2ccccc2)cc1` (stereo not drawn): the IC50 is greater than 50 µM. Take `CC(C)Cc1nnc(SCc2ccc(C(=O)Nc3cccc(F)c3)cc2)n1Cc1ccccc1`: the concentration for half-maximal inhibition (IC50) amounted to 20.3 µM. In turn, `COc1ccc(CCc2nnc(-c3ccc(OC(C)(C)C(=O)Nc4cnn(C)c4)cc3)n2Cc2ccccc2)cc1` registered an IC50 greater than 50 µM.
